12 molecules from ChEMBL document CHEMBL1641601, “Design, synthesis, and testing of an 6-O-linked series of benzimidazole based inhibitors of CDK5/p25” (Bioorg Med Chem, 2011) can be followed below.

A value given as a limit tells only on which side of the number the result lay.

The test has as its target Cyclin-dependent kinase 5/CDK5 activator 1 (Homo sapiens, UniProt Q00535). Nature of the test: Inhibition of CDK5/P25 GST-fusion protein assessed as substrate histone H1 phosphorylation by scintillation counting. The test is classed as protein-complex assay.

Cyclin-dependent kinase 5/CDK5 activator 1, sequence (Q00535 whole entry, the tested form may be a part): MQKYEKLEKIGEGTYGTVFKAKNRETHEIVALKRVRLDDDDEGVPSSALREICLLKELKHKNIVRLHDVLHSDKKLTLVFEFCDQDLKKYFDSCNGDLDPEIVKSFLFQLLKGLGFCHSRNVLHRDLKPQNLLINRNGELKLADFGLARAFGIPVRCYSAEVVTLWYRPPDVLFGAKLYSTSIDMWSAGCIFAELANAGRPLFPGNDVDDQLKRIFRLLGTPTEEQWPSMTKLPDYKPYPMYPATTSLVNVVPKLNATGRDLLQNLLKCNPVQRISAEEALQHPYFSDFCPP
Cyclin-dependent kinase 5/CDK5 activator 1, sequence (Q15078 whole entry, further chain, the tested form may be a part): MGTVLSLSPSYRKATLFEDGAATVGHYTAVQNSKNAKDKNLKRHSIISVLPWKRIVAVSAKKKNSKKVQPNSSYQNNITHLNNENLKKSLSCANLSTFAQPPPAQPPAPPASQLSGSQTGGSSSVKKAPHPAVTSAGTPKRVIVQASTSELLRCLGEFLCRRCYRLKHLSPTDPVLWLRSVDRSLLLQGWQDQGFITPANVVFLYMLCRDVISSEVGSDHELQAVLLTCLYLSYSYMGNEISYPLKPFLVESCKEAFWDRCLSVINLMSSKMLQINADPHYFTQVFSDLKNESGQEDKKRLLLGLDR

The term IC50 denotes the concentration needed to halve the response being measured. Consider `COc1cc(NCc2ccccc2)c2ncn(C(C)C)c2c1`, for which the IC50 was above 10 µM.

For the molecule `CCC(CO)Oc1cc(NCc2ccccc2)c2ncn(C(C)C)c2c1` (configuration not stated), the IC50 came out at 13 µM.

In the case of `CCOc1cc(NCc2ccccc2)c2ncn(C(C)C)c2c1`, the IC50 was above 100 µM.

For `CCCOc1cc(NCc2ccccc2)c2ncn(C(C)C)c2c1`, the half-inhibitory concentration (IC50) is above 100 µM.

On to `CCCCOc1cc(NCc2ccccc2)c2ncn(C(C)C)c2c1`, for which the IC50 is above 100 µM.

`COCCOc1cc(NCc2ccccc2)c2ncn(C(C)C)c2c1`: the IC50 is above 100 µM.

Consider `CCC(CN(C)C)Oc1cc(NCc2ccccc2)c2ncn(C(C)C)c2c1` (configuration not stated), for which the IC50 was above 100 µM.

`CC(C)n1cnc2c(NCc3ccccc3)cc(OCC3CCN(C)CC3)cc21`: the half-maximal inhibitory concentration (IC50) was above 100 µM.

As to `CCC(COC)Oc1cc(NCc2ccccc2)c2ncn(C(C)C)c2c1` (configuration not stated), the IC50 was above 10 µM.

In the case of `CC(C)n1cnc2c(NCc3ccccc3)cc(OCCO)cc21`, the IC50 is above 100 µM.

Turning to `CCC(O)COc1cc(NCc2ccccc2)c2ncn(C(C)C)c2c1` (configuration not stated), the IC50 is above 100 µM.

Turning to `CC(C)n1cnc2c(NCc3ccccc3)cc(OCC3CCNCC3)cc21`, the 50% inhibitory concentration (IC50) was above 100 µM.
